Experimental findings from publication doi:10.1101/2025.03.14.643404, “A Bivalent Molecular Glue Linking Lysine Acetyltransferases to Oncogene-induced Cell Death” (bioRxiv, 2025) are described below.

In experiment [1] the test system is c-MYC mRNA. As to the kind of experiment: RT-qPCR of c-MYC transcripts in SUDHL5. The format is cell-based, human. The conditions noted are these: for effect of competitor co-treatment on c-MYC mRNA repression by TCIP3: SUDHL5, 10 nM TCIP3 plus 500 nM inhibitor, 1 h; for c-MYC repression compared with TCIP3: SUDHL5, matched concentrations, transcript or proteomic level. As to the method:
Cells were plated at 1M/mL and harvested in TRIsure (Bioline 38033). RNA was extracted using Direct-zol RNA MicroPrep columns (Zymo R2062) treated with DNAseI. cDNA was prepared (Meridian Bioscience BIO-65054) and used for qPCR (Meridian Bioscience BIO-94050) using an AppliedBiosystems QuantStudio 6Pro. Primer sequences were the following:
• c-MYC fwd: […]; • c-MYC rev: […]; • GAPDH fwd: […]; • GAPDH rev: […].

In experiment [2] the test system is SUDHL5 cells. Nature of the experiment: Cell viability, 72 h compound treatment (PrestoBlue), SUDHL5. The format is cell-based, human. The conditions noted are these: for effect of inhibitor co-treatment on TCIP3 cell killing: SUDHL5, constant 1 nM TCIP3 plus titrated inhibitor, 72 h. How it is done: Thirty thousand cells were seeded in 100 μl of media per well of a 96-well plate and treated with drug for the indicated times and doses. A resazurin-based indicator of cell health (PrestoBlue; P50200, Thermo Fisher) was added for 1.5 h at 37°C, at which point the fluorescence ratio at 560/590 nm was recorded (Tecan Spark). The background fluorescence was subtracted, and the signal was normalized to DMSO-treated cells. IC50 measurements on cell lines were calculated using at least three biological replicates (separate cell passages). Fit of dose–response curves to data and statistical analysis was performed using GraphPad PRISM using the four-parameter log(inhibitor) vs response function.

Experiment [3] deals with p300^Q1083R (Homo sapiens, UniProt P41182+Q09472, Q1082R). Nature of the experiment: TR-FRET binary displacement assay, p300 Q1083R bromodomain. The format is binding. The conditions noted are these: α = Kd binary/Kd ternary. How it is done:
(§1) Drugs were digitally dispensed (Tecan D300e) into protein-containing wells, and the plate was allowed to incubate in the dark for 1 hour at room temperature. Emission at 490 nm (terbium) and 520 nm (FITC) was measured on a PHERAstar FS plate reader (BMG Labtech) upon excitation with 337 nm. The ratio of signal at 520 nm to 490 nm was calculated and normalized to DMSO-treated protein.

The target in experiment [4] is p300^Q1083A (Homo sapiens, UniProt P41182+Q09472, Q1082A). As to the kind of experiment: TR-FRET binary displacement assay, p300 Q1083A bromodomain. The format is binding. The conditions noted are these: α = Kd binary/Kd ternary. As to the method:
as §1

Experiment [5] relates to SUDHL5 cells. Nature of the experiment: Global proteome profiling in SUDHL5, whole proteome. The conditions noted are these: SUDHL5, 10 nM, 6 and 24 hours. The format is cell-based, human. As to the method: SUDHL5 cells (6M cells in 6 mL RPMI-1640 media supplemented with 10% FBS and 1x pen-strep) were treated with 0.1% DMSO, 10 nM TCIP3, 10 nM Neg1, 10 nM Neg2, or 250 nM dCBP1 (1000x stocks in DMSO for final 0.1% DMSO concentration) in 3 biologically independent replicates. The cells were washed twice with TBS (50 mM Tris, pH 8.5, and 150 mM NaCl) and then stored at −80 °C until use.
Lysis was performed by first thermally denaturing the samples in residual wash buffer for 5 min at 95 °C. Fresh Lysis Buffer (8 M urea, 150 mM NaCl, and 100 mM HEPES, pH 8.0, in MS-grade water) was then added, and the lysates were homogenized using needle ultrasonication and then normalized to 30 μg of 2 mg/mL by diluting with Lysis Buffer via a Bradford protein concentration assay (Bio-Rad 5000006) in technical duplicates. […]
Samples were then desalted using SOLAμ SPE HRP Peptide Desalting columns (Thermo 60209–001) with a Positive Pressure Manifold and all MS-grade reagents. […] The samples were then reconstituted in 0.1% FA in water and then analyzed by LC-MS/MS (see below).
The reconstituted desalted peptides were then analyzed using a nanoElute 2 UHPLC (Bruker Daltonics, Bremen, Germany) coupled to a timsTOF HT (Bruker Daltonics, Bremen, Germany) via a CaptiveSpray nano-electrospray source. […]

Experiment [6] has as its system BCL6-repressed GFP reporter. Nature of the experiment: BCL6 reporter assay (BCL6-repressed GFP) in K422 cells. In kind it is cell-based, human. The following applies: 24 h. As to the method:
KARPAS422 cells were lentivirally transduced with a construct containing the reporter. Description of the reporter construct has been published previously. After selection, cells were plated and treated with indicated amount of compound for 24 hours. Cells were washed in 2.5% FBS/PBS, stained with 1:250 v/v of 7-AAD (BD 559925) to distinguish live from dead cells, and harvested for flow cytometry on a BD Accuri. Given the polyclonal population after transduction, the area under the curve of the histogram representing FITC signal across all live cells was calculated as an integrative measure of total GFP signal. A GFP-positive gate two standard deviations from the mean was drawn from non-transduced cells and the area past a constant threshold was calculated and normalized to the signal from cells treated with DMSO.

The target of experiment [7] is T1, BCL6^BTB (Homo sapiens, UniProt P41182).
T1 construct: human BCL6 (Uniprot: P41182; aa1–129); expressed in transfected cells; host or cells: HEK293T
Nature of the experiment: BCL6BTB nanoBRET probe displacement in HEK293T. In kind it is cell-based. The following applies: compared with TCIP3. As to the method: The construct for NanoLuciferase(NanoLuc)-tagged BCL6^BTB was created as follows in a lentiviral construct: an N-terminal NanoLuc (subcloned from pNLSF-1, Promega N1351) was fused to the BTB domain of human BCL6 (Uniprot: P41182; aa1–129) with an internal GSG linker followed by a V5 tag. HEK293T cells were plated at a density of 6×10^5 cells/mL in 2 mL of DMEM/well in a tissue culture treated 6-well plate and were allowed to incubate overnight at 37 °C. The next day, each well of cells was transfected with 2 ug of NanoLuc-BCL6^BTB (renamed pNSG218) using Lipofectamine 2000. The transfected cells were allowed to incubate overnight at 37 °C. The following day, the transfected cells were trypsizined, washed with PBS, counted with Trypan Blue, and brought to a final concentration of 1.25×10^5 cells/mL in Fluorobrite DMEM (Gibco A1896701) supplemented with 10% FBS. 1 uM TNL-15 probe was added to the cells before plating 5000 cells per well in a volume of 40 uL per well in a 384-well plate. […] Data was then obtained using a PheraStar FS plate reader (BMG Labtech) measuring luminescence with 520-BP and 450-BP filters. […]
For all NanoBRET assays, a dose-response curve with 3 technical replicates was constructed for each compound, and corrected BRET ratios were calculated according to manufacturer assay protocol (Promega TM439). […]

Molecules are shown by their SMILES.

Turning to `CNC(=O)COc1cc2cc(Nc3nc(N4CCC(C(=O)N(C)C)CC4)ncc3Cl)cc(OC)c2n(C)c1=O` [BI-3812], in experiment [1], the “effect of competitor co-treatment on c-MYC mRNA repression by TCIP3” value is given as “almost completely restored c-MYC levels to baseline” and the “c-MYC repression compared with TCIP3” value is “Neither GNE-781, dCBP-1, NEG1, NEG2, nor the BCL6^BTB inhibitor BI-3812 produced comparable c-MYC repression”. Also, the “effect of inhibitor co-treatment on TCIP3 cell killing” value in experiment [2] was “buffered the effects of TCIP3 on cell viability”.
`CNC(=O)N1CCc2c(c(N3CCCc4cc(-c5cnn(C)c5)c(C(F)F)cc43)nn2C2CCOCC2)C1` [GNE-781]: the “cooperativity α” value in experiment [3] was ~ 1.0; in experiment [4], ~ 0.88. The “effect of competitor co-treatment on c-MYC mRNA repression by TCIP3” value in experiment [1] was “restored c-MYC levels to those observed with GNE-781 treatment alone”. Further, in experiment [1], the “c-MYC repression compared with TCIP3” value is “Neither GNE-781, dCBP-1, NEG1, NEG2, nor the BCL6^BTB inhibitor BI-3812 produced comparable c-MYC repression”. The “effect of inhibitor co-treatment on TCIP3 cell killing” value in experiment [2] is “buffered the effects of TCIP3 on cell viability”.
As to `CNC(=O)COc1cc2cc(Nc3nc(N4CCC(C(=O)N5CCN(CCC(=O)N6CCC(n7nc(N8CCCc9cc(-c%10cnn(C)c%10)c(C(F)F)cc98)c8c7CCN(C(=O)c7ccccc7)C8)CC6)CC5)CC4)ncc3Cl)cc(OC)c2n(C)c1=O` [NEG2], in experiment [5], the “proteome changes relative to DMSO” value was “no significant changes relative to DMSO”. In addition, in experiment [6], the “activation of GFP expression” value is listed as “Neither NEG1 nor NEG2 activated GFP expression”. Further, in experiment [1], the “c-MYC repression compared with TCIP3” value was “Neither GNE-781, dCBP-1, NEG1, NEG2, nor the BCL6^BTB inhibitor BI-3812 produced comparable c-MYC repression”. Also, the IC50 in experiment [2] (Homo sapiens, SU-DHL-5, SUDHL5, 72 h, read-out: IC50 cell viability / antiproliferation) was determined as 2.1 µM. Also, in experiment [7], the “cellular binding to BCL6 BTB” value was “potent binders”.
